Results taken from patent US11091478B2 (Fochon Pharmaceuticals, Ltd., priority 2017, dated 2021).

What was measured:
RS4;11 cells = assay: Cell proliferation assay (MTS), RS4;11 cells, 72 h; assay type: cell-based; conditions: Homo sapiens, RS4-11, 72 h
In short: (§1)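 Proliferation was scored by MTS (2 h, then SDS stop, A490 with 650 nm reference) and IC50 derived. Compound ran at nine final concentrations from 1.5 to 10000 nM. DOHH2 were incubated 120 h and RS4;11 72 h, both plated at 5000 cells/well in RPMI-1640 plus 10% FBS.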

DOHH2 cells = assay: Cell proliferation assay (MTS), DOHH2 cells, 120 h; assay type: cell-based; conditions: Homo sapiens, DOHH-2, 120 h
In short: as §1

IC50 (RS4;11 cells) | SMILES | IC50 (DOHH2 cells)
0.001 µM | CC1(C)CCC(CN2CCN(c3ccc(C(=O)NS(=O)(=O)c4cc5c(c([N+](=O)[O-])c4)NC(C4CCC(O)CC4)CO5)c(Oc4cnc5[nH]ccc5c4)c3)CC2)=C(c2ccc(Cl)cc2)C1 (stereo not drawn) [Example 2-188, 2-((1H-pyrrolo[2,3-b]pyridin-5-yl)oxy)-4-(4-((4′-chloro-5,5-dimethyl-3,4,5,6-tetrahydro-[1,1′-biphenyl]-2-yl)methyl)piperazin-1-yl)-N-((3-(4-hydroxycyclohexyl)-5-nitro-3,4-dihydro-2H-benzo[b][1,4]oxazin-7-yl)sulfonyl)benzamide] | 0.019 µM
0.078 µM | CC1(C)CCC(CN2CCN(c3ccc(C(=O)NS(=O)(=O)c4cc5c(c([N+](=O)[O-])c4)N[C@@H](Cc4ccccc4F)CO5)c(Oc4cnc5[nH]ccc5c4)c3)CC2)=C(c2ccc(Cl)cc2)C1 [Example 2-189, (S)-2-((1H-pyrrolo[2,3-b]pyridin-5-yl)oxy)-4-(4-((4′-chloro-5,5-dimethyl-3,4,5,6-tetra-hydro-[1,1′-biphenyl]-2-yl)methyl)piperazin-1-yl)-N-((3-(2-fluorobenzyl)-5-nitro-3,4-dihydro-2H-benzo[b][1,4]oxazin-7-yl)sulfo-nyl)benzamide] | 0.148 µM
0.008 µM | CC1(C)CCC(CN2CCN(c3ccc(C(=O)NS(=O)(=O)c4cc5c(c([N+](=O)[O-])c4)N[C@@H](Cc4ccc(F)cc4)CO5)c(Oc4cnc5[nH]ccc5c4)c3)CC2)=C(c2ccc(Cl)cc2)C1 [Example 2-190, (S)-2-((1H-pyrrolo[2,3-b]pyridin-5-yl)oxy)-4-(4-((4′-chloro-5,5-dimethyl-3,4,5,6-tetra-hydro-[1,1′-biphenyl]-2-yl)methyl)piperazin-1-yl)-N-((3-(4-fluorobenzyl)-5-nitro-3,4-dihydro-2H-benzo[b][1,4]oxazin-7-yl)sulfo-nyl)benzamide] | 0.025 µM
0.005 µM | CC1(C)CCC(CN2CCN(c3ccc(C(=O)NS(=O)(=O)c4cc5c(c([N+](=O)[O-])c4)N[C@@H](Cc4ccc(S(C)(=O)=O)cn4)CO5)c(Oc4cnc5[nH]ccc5c4)c3)CC2)=C(c2ccc(Cl)cc2)C1 [Example 2-192, (S)-2-((1H-pyrrolo[2,3-b]pyridin-5-yl)oxy)-4-(4-((4′-chloro-5,5-dimethyl-3,4,5,6-tetra-hydro-[1,1′-biphenyl]-2-yl)methyl)piperazin-1-yl)-N-((3-((5-(methylsulfonyl)pyridin-2-yl)methyl)-5-nitro-3,4-dihydro-2H-benzo [b][1,4]oxazin-7-yl)sulfonyl)benzamide] | 0.143 µM
0.001 µM | CN1CCC(C[C@H]2COc3cc(S(=O)(=O)NC(=O)c4ccc(N5CCN(CC6=C(c7ccc(Cl)cc7)CC(C)(C)CC6)CC5)cc4Oc4cnc5[nH]ccc5c4)cc([N+](=O)[O-])c3N2)CC1 [Example 2-193, (S)-2-((1H-pyrrolo[2,3-b]pyridin-5-yl)oxy)-4-(4-((4′-chloro-5,5-dimethyl-3,4,5,6-tetra-hydro-[1,1′-biphenyl]-2-yl)methyl)piperazin-1-yl)-N-((3-((1-methylpiperidin-4-yl)meth-yl)-5-nitro-3,4-dihydro-2H-benzo[b][1,4]oxazin-7-yl)sulfonyl)benzamide] | 0.028 µM
0.005 µM | CC(=O)N1CCC(C[C@H]2COc3cc(S(=O)(=O)NC(=O)c4ccc(N5CCN(CC6=C(c7ccc(Cl)cc7)CC(C)(C)CC6)CC5)cc4Oc4cnc5[nH]ccc5c4)cc([N+](=O)[O-])c3N2)CC1 [Example 2-194, (S)-2-((1H-pyrrolo[2,3-b]pyridin-5-yl)oxy)-N-((3-((1-acetylpiperidin-4-yl)methyl)-5-nitro-3,4-dihydro-2H-benzo[b][1,4]oxazin-7-yl)sulfonyl)-4-(4-((4′-chloro-5,5-dimethyl-3,4,5,6-tetrahydro-[1,1′-biphenyl]-2-yl)meth-yl)piperazin-1-yl)benzamide] | 0.074 µM
0.004 µM | COC(=O)N1CCC(C[C@H]2COc3cc(S(=O)(=O)NC(=O)c4ccc(N5CCN(CC6=C(c7ccc(Cl)cc7)CC(C)(C)CC6)CC5)cc4Oc4cnc5[nH]ccc5c4)cc([N+](=O)[O-])c3N2)CC1 [Example 2-195, methyl (S)-4-((7-(N-(2-((1H-pyrrolo[2,3-b]pyridin-5-yl)oxy)-4-(4-((4′-chloro-5,5-dimethyl-3,4,5,6-tetrahydro-[1,1′-biphenyl]-2-yl)methyl)piperazin-1-yl)benzoyl)sulfamoyl)-5-nitro-3,4-dihydro-2H-benzo[b][1,4]oxazin-3-yl)methyl)piperidine-1-carboxylate] | 0.138 µM
0.006 µM | CC1(C)CCC(CN2CCN(c3ccc(C(=O)NS(=O)(=O)c4cc5c(c([N+](=O)[O-])c4)N[C@@H](CC4CCN(S(C)(=O)=O)CC4)CO5)c(Oc4cnc5[nH]ccc5c4)c3)CC2)=C(c2ccc(Cl)cc2)C1 [Example 2-196, (S)-2-((1H-pyrrolo[2,3-b]pyridin-5-yl)oxy)-4-(4-((4′-chloro-5,5-dimethyl-3,4,5,6-tetra-hydro-[1,1′-biphenyl]-2-yl)methyl)piperazin-1-yl)-N-((3-((1-(methysulfonyl)piperidin-4-yl)methyl)-5-nitro-3,4-dihydro-2H-benzo[b][1,4]oxazin-7-yl)sulfonyl)benzamide] | 0.094 µM
0.018 µM | CC1(C)CCC(CN2CCN(c3ccc(C(=O)NS(=O)(=O)c4cc5c(c([N+](=O)[O-])c4)N[C@H](Cc4ccccn4)CO5)c(Oc4cnc5[nH]ccc5c4)c3)CC2)=C(c2ccc(Cl)cc2)C1 [Example 2-199, (R)-2-((1H-pyrrolo[2,3-b]pyridin-5-yl)oxy)-4-(4-((4′-chloro-5,5-dimethyl-3,4,5,6-tetra-hydro-[1,1′-biphenyl]-2-yl)methyl)piperazin-1-yl)-N-((5-nitro-3-(pyridin-2-ylmethyl)-3,4-dihydro-2H-benzo[b][1,4]oxazin-7-yl)sulfonyl)benzamide] | 0.055 µM
0.003 µM | COc1ccc(C[C@@H]2COc3cc(S(=O)(=O)NC(=O)c4ccc(N5CCN(CC6=C(c7ccc(Cl)cc7)CC(C)(C)CC6)CC5)cc4Oc4cnc5[nH]ccc5c4)cc([N+](=O)[O-])c3N2)nc1 [Example 2-200, (R)-2-((1H-pyrrolo[2,3-b]pyridin-5-yl)oxy)-4-(4-((4′-chloro-5,5-dimethyl-3,4,5,6-tetra-hydro-[1,1′-biphenyl]-2-yl)methyl)piperazin-1-yl)-N-((3-((5-methoxypyridin-2-yl)meth-yl)-5-nitro-3,4-dihydro-2H-benzo[b][1,4]oxazin-7-yl)sulfonyl)benzamide] | 0.218 µM
0.022 µM | CN1CCC(C[C@@H]2COc3cc(S(=O)(=O)NC(=O)c4ccc(N5CCN(CC6=C(c7ccc(Cl)cc7)CC(C)(C)CC6)CC5)cc4Oc4cnc5[nH]ccc5c4)cc([N+](=O)[O-])c3N2)CC1 [Example 2-201, (R)-2-((1H-pyrrolo[2,3-b]pyridin-5-yl)oxy)-4-(4-((4′-chloro-5,5-dimethyl-3,4,5,6-tetra-hydro-[1,1′-biphenyl]-2-yl)methyl)piperazin-1-yl)-N-((3-((1-methylpiperidin-4-yl)meth-yl)-5-nitro-3,4-dihydro-2H-benzo[b][1,4]ox-azin-7-yl)sulfonyl)benzamide] | 0.145 µM
0.036 µM | COC(=O)N1CCC(C[C@@H]2COc3cc(S(=O)(=O)NC(=O)c4ccc(N5CCN(CC6=C(c7ccc(Cl)cc7)CC(C)(C)CC6)CC5)cc4Oc4cnc5[nH]ccc5c4)cc([N+](=O)[O-])c3N2)CC1 [Example 2-202, methyl (R)-4-((7-(N-(2-((1H-pyrrolo[2,3-b]pyridin-5-yl)oxy)-4-(4-((4′-chloro-5,5-dimethyl-3,4,5,6-tetrahydro-[1,1′-biphenyl]-2-yl)methyl)piperazin-1-yl)benzoyl)sulfamoyl)-5-nitro-3,4-dihydro-2H-benzo[b][1,4]oxazin-3-yl)methyl)piperidine-1-carboxylate] | 0.063 µM
0.02 µM | CC(=O)N1CCC(C[C@@H]2COc3cc(S(=O)(=O)NC(=O)c4ccc(N5CCN(CC6=C(c7ccc(Cl)cc7)CC(C)(C)CC6)CC5)cc4Oc4cnc5[nH]ccc5c4)cc([N+](=O)[O-])c3N2)CC1 [Example 2-203, (R)-2-((1H-pyrrolo[2,3-b]pyridin-5-yl)oxy)-N-((3-((1-acetylpiperidin-4-yl)methyl)-5-nitro-3,4-dihydro-2H-benzo[b][1,4]oxazin-7-yl)sulfonyl)-4-(4-((4′-chloro-5,5-dimethyl-3,4,5,6-tetrahydro-[1,1′-biphenyl]-2-yl)meth-yl)piperazin-1-yl)benzamide] | 0.096 µM
0.026 µM | CC1(C)CCC(CN2CCN(c3ccc(C(=O)NS(=O)(=O)c4cc5c(c([N+](=O)[O-])c4)N[C@H](CC4CCN(S(C)(=O)=O)CC4)CO5)c(Oc4cnc5[nH]ccc5c4)c3)CC2)=C(c2ccc(Cl)cc2)C1 [Example 2-204, (R)-2-((1H-pyrrolo[2,3-b]pyridin-5-yl)oxy)-4-(4-((4′-chloro-5,5-dimethyl-3,4,5,6-tetra-hydro-[1,1′-biphenyl]-2-yl)methyl)piperazin-1-yl)-N-((3-((1-(methylsulfonyl)piperidin-4-yl)methyl)-5-nitro-3,4-dihydro-2H-benzo [b][1,4]oxazin-7-yl)sulfonyl)benzamide] | 0.017 µM
0.021 µM | CC1(C)CCC(CN2CCN(c3ccc(C(=O)NS(=O)(=O)c4cc5c(c([N+](=O)[O-])c4)N[C@@H](c4ccc(C#N)cc4)CO5)c(Oc4cnc5[nH]ccc5c4)c3)CC2)=C(c2ccc(Cl)cc2)C1 [Example 2-206, (S)-2-((1H-pyrrolo[2,3-b]pyridin-5-yl)oxy)-4-(4-((4′-chloro-5,5-dimethyl-3,4,5,6-tetra-hydro-[1,1′-biphenyl]-2-yl)methyl)piperazin-1-yl)-N-((3-(4-cyanophenyl)-5-nitro-3,4-dihdyro-2H-benzo[b][1,4]oxazin-7-yl)sulfo-nyl)benzamide] | 0.312 µM
